Entries after “also recorded” stand apart in the source; their conditions may differ. Counter-ions that a name gives are not always drawn. Like-named read-outs stand apart in the source and are kept apart here.
Tests used:
[1] = cited from earlier work
[2] = system: epithelial cells/adenocytes and connective tissue/capillaries; assay: Preferential staining of epithelial cells/adenocytes or connective tissue/capillaries; type: in vivo, mouse; conditions: 5 mg/ml for curcumin, 1 mg/ml for all other dyes
Procedure: Drinking water containing 2% (w/v) dextran sodium sulfate (DSS) was given to 8-week-old C57B6 mice (male, approximately 20 g) for 7 days. After intraperitoneal injection of 0.2 ml of 5% chloral hydrate for anesthesia, the mouse abdominal wall was incised vertically to about 1 cm, and the gastrointestinal tract was raised over the abdominal wall to about 1 cm. Blood flow to the gastrointestinal tract was maintained during this time by the blood vessel flowing into the mesenteric attachment site. The gastrointestinal tract was incised vertically to about 1 cm on opposite side of the mesenteric attachment site, including the tunica muscularis and mucosa. The opposite side of the mesenteric attachment site was incised in order to prevent severance and damage of the blood vessel and minimize bleeding. When the incision site of the gastrointestinal tract was opened vertically, the mucosal surface of the gastrointestinal tract, as the food channel, became visible. When food digestion products were present they were wiped off with tissue paper.
In order to more clearly observe the gastrointestinal tract mucosal surface, a 1% pronase solution was dropped onto the mucosal surface and was allowed to stand still for 15 minutes. This pronase treatment removed the mucus from the mucosal surface, rendering the cell structure more easily visible. Next, the pronase was removed from the mucosal surface and rinsed with physiological saline (PBS).
A metal ring (outer diameter: 16 millimeters, inner diameter, 6 millimeters) was placed on a laboratory stage, and a rapid bonding adhesive (AronAlpha) was coated over the entire periphery of the ring surface on one side. Forceps were used to hold the rapid bonding adhesive-coated metal ring with the adhesive-coated surface facing downward, and it was set on the pronase-treated mucosal surface. During a period of about 5 minutes, the metal ring became anchored to the mucosa with the rapid bonding adhesive, and the region where the dye compound was to be applied was rinsed with PBS.
In order to avoid drying of the mucosal surface, a curcumin stock solution or sulfuretin stock solution diluted with physiological saline (PBS) (see Tables 1 to 3 for the dilution factors) was added dropwise onto the pronase-treated mucosal surface, and after allowing it to stand for 1 minute, it was rinsed 3 times with PBS, a cover glass was placed over the metal ring, and the objective lens of a multiphoton laser microscope (FV1000 MPE by Olympus Corp.) was brought near to the top of the cover glass for image observation.
The procedure from administration of the dye compound to observation was conducted as described above under “Evaluation of stainability” (same hereunder). Also, the administered concentration of dye to the mucosal surface was 5 mg/ml for curcumin as Dye No. 1, and 1 mg/ml for all of the other dyes.

[3] = system: MDCK-GFP-Ras^V12 cells mixed with MDCK normal cells; assay: In vitro assay of MDCK-Ras^V12 cancerized cell small aggregates as a very early cancer model; type: cell-based, canine; conditions: excitation 750, 800, 850, 900 nm, red fluorescence
Procedure: The MDCK normal cells were cultured in a 10 cm dish, and the MDCK-GFP-Ras^V12 cells were cultured in a 6 cm dish. The culture solution used for the MDCK normal cells was DMEM (containing Phenol Red)+10% FBS+penicillin/streptomycin.
The solution used for the MDCK-GFP-Ras^V12 cells was DMEM (containing Phenol Red)+10% FBS+penicillin/streptomycin+Zeocin (400 μg/ml)+blasticidin (5 μg/ml). […] The seeding was carried out using a DMEM+10% FBS+penicillin/streptomycin culture solution, to 1.0 to 3.0×10^4 cells per well of the 96-well dish. Tetracycline at a concentration of 2 μg/ml was added to the culture solution after 4 days when seeding was to 1.0×10^4 or after 1 day when seeding was to 3.0×10^4, and GFP-Ras^V12 was expressed, forming cancerized cell small aggregates among the MDCK normal cells (NPL 3). After 18 to 36 hours, the cells in each of the wells were rinsed 3 times with 200 μl of PBS, and then the Prestwick Chemical Library compounds and the Ministry of Health, Labour and Welfare-approved food additives, each diluted to 1 μM with a 100 μl volume of PBS, were added to the respective wells and taken up by the cells for 5 minutes at room temperature. They were then rinsed 3 times with 200 μl of PBS, and in certain cases further rinsed once with 100 μl of DMEM without Phenol Red, and observed under a multiphoton laser microscope.

[4] = Prestwick Chemical Library compounds, 1 μM, 5 minutes

In the case of Oc1ccc(-c2ccc3c(O)cc(O)cc3[o+]2)cc1.[Cl-] [Apigeninidin], the LD50 ([1]; Mouse, Oral) is listed as 300 mg/kg.

For O=C1/C(=C2\Nc3ccc(S(=O)(=O)[O-])cc3C2=O)Nc2ccc(S(=O)(=O)[O-])cc21.[Na+].[Na+] [Blue #2, indigo carmine], the “Cell group preferentially stained (epithelial cells/adenocytes or connective tissue/capillaries)” value [2] is listed as “preferentially stained connective tissue/capillaries” and the LD50 ([1]; Mouse, Oral) is listed as 2000 mg/kg.

For CC1=C(/C=C/C(C)=C/C=C/C(C)=C/C=C/C=C(C)/C=C/C=C(C)/C=C/C(=O)[C@]2(C)C[C@@H](O)CC2(C)C)C(C)(C)C[C@H](O)C1 [Capsanthin], the LD50 ([1]; Mouse, Oral) is given as 300 mg/kg.

In the case of COc1cc(-c2ccc(N=Nc3ccc4c(S(=O)(=O)[O-])cc(S(=O)(=O)[O-])c(N)c4c3O)c(OC)c2)ccc1N=Nc1ccc2c(S(=O)(=O)[O-])cc(S(=O)(=O)[O-])c(N)c2c1O.[Na+].[Na+].[Na+].[Na+] [Chicago sky blue 6B, reference compound], the “Staining of GFP-Ras^V12 positive cancerized cells versus MDCK normal cells” value [3, 4] is reported as “labeling both cancerized cell small aggregates and normal cells” and the “Staining of GFP-Ras^V12 positive cancerized cells versus MDCK normal cells” value ([3]; Prestwick Chemical Library compounds, 1 μM, 5 minutes, listed as Chicago Sky Blue 6B) is reported as “equal staining of normal cells and cancer cells”.

For COc1cc(/C=C/C(=O)CC(=O)/C=C/c2ccc(O)c(OC)c2)ccc1O [Curcumin (pure), Curcumin], the LD50 ([1]; mouse, in vivo, po) is given as 2000 mg/kg.

For O=C(O[C@@H]1Cc2c(O)cc(O)cc2O[C@@H]1c1cc(O)c(O)c(O)c1)c1cc(O)c(O)c(O)c1 [Epigallocatechin gallate], the “Cell group preferentially stained (epithelial cells/adenocytes or connective tissue/capillaries)” value [2] is given as “preferentially stained epithelial cells/adenocytes” and the LD50 ([1]; Mouse, Oral) is given as 2170 mg/kg.

In the case of CCCCC[C@H](O)CC(=O)CCc1ccc(O)c(OC)c1 [Gingerol, 6-gingerol], the “Cell group preferentially stained (epithelial cells/adenocytes or connective tissue/capillaries)” value [2] is listed as “preferentially stained epithelial cells/adenocytes” and the LD50 ([1]; mouse, in vivo, po) is listed as 250 mg/kg.

For CC1(C)C(/C=C/C=C/C=C/C=C2\N(CCCCS(=O)(=O)O)c3ccc4ccccc4c3C2(C)C)=[N+](CCCCS(=O)(=O)[O-])c2ccc3ccccc3c21 [Indocyanine green, reference compound], the “Cell group preferentially stained (epithelial cells/adenocytes or connective tissue/capillaries)” value [2] was “preferentially stained epithelial cells/adenocytes”.

In the case of COc1cc(-c2[o+]c3cc(O)cc(O)c3cc2O)cc(OC)c1O [Malvidin], the LD50 ([1]; Mouse, Intra-venous) is given as 18 mg/kg.

For O=c1c(O)c(-c2cc(O)c(O)c(O)c2)oc2cc(O)cc(O)c12 [Myricetin], the “Cell group preferentially stained (epithelial cells/adenocytes or connective tissue/capillaries)” value [2] is given as “preferentially stained epithelial cells/adenocytes” and the LD50 ([1]; Mouse, Oral) is given as 300 mg/kg.

For Oc1ccc(-c2[o+]c3cc(O)cc(O)c3cc2O)cc1 [Pelargonidin], the LD50 ([1]; Mouse, Oral) is given as 300 mg/kg.

In the case of COc1cc(-c2[o+]c3cc(O)cc(O)c3cc2O)cc(O)c1O [Petunidine], the “Cell group preferentially stained (epithelial cells/adenocytes or connective tissue/capillaries)” value [2] is given as “preferentially stained epithelial cells/adenocytes” and the LD50 ([1]; Mouse, Intra-abdominal) is given as 4110 mg/mL.

With O=c1c(O)c(-c2ccc(O)c(O)c2)oc2cc(O)cc(O)c12 [Quercetin] the “Cell group preferentially stained (epithelial cells/adenocytes or connective tissue/capillaries)” value [2] was “intensely stained connective tissue/capillaries and faintly stained epithelial cells/adenocytes”.

For O=S(=O)([O-])c1ccc2c(N=Nc3ccc(S(=O)(=O)[O-])c4ccccc34)c(O)c(S(=O)(=O)[O-])cc2c1.[Na+].[Na+].[Na+] [Red #2], the LD50 ([1]; Mouse, Intra-abdominal) is listed as 1000 mg/kg.

In the case of O=C([O-])c1c(Cl)c(Cl)c(Cl)c(Cl)c1-c1c2cc(I)c(=O)c(I)c-2oc2c(I)c([O-])c(I)cc12.[Na+].[Na+] [Red #105 (720 nm)], the LD50 ([1]; Mouse, Oral) is given as 6480 mg/kg.

In the case of CCN(CC)c1ccc2c(-c3ccc(S(=O)(=O)[O-])cc3S(=O)(=O)[O-])c3ccc(=[N+](CC)CC)cc-3oc2c1.[Na+] [Red #106, Acid Red], the “Staining of GFP-Ras^V12 positive cancerized cells versus MDCK normal cells” value ([3]; Ministry of Health, Labour and Welfare-approved food additives, 1 mg/ml) is listed as “labeled both cancerized cell small aggregates and normal cells; also recorded: staining of both normal cells and cancer cells”, the “Cell group preferentially stained (epithelial cells/adenocytes or connective tissue/capillaries)” value [2] is listed as “the cell membranes of epithelial cells and adenocytes, and connective tissue/capillaries were strongly stained” and the LD50 ([1]; Mouse, Oral) is listed as >20,000 mg/kg. For the same compound, the LD50 ([1]; Mouse, Oral, listed as Acid Red) was greater than 20000 mg/kg.

For Oc1ccc2cc(O)c(-c3cc(O)c(O)c(O)c3)[o+]c2c1 [Robinetinidin], the “Cell group preferentially stained (epithelial cells/adenocytes or connective tissue/capillaries)” value [2] was “preferentially stained connective tissue/capillaries”.

For Oc1cc(O)c2ccc(-c3cc(O)c(O)c(O)c3)[o+]c2c1 [Tricetinidin], the “Cell group preferentially stained (epithelial cells/adenocytes or connective tissue/capillaries)” value [2] is given as “preferentially stained epithelial cells/adenocytes” and the LD50 ([1]; Mouse, Oral) is given as 300 mg/kg.

For O=C(O)c1nn(-c2ccc(S(=O)(=O)O)cc2)c(O)c1N=Nc1ccc(S(=O)(=O)O)cc1 [Yellow #4, tartrazine], the LD50 ([1]; Mouse, Oral) is listed as 12750 mg/kg.

For O=S(=O)([O-])c1ccc(N=Nc2c(O)ccc3cc(S(=O)(=O)[O-])ccc23)cc1.[Na+].[Na+] [Yellow #5, Sunset Yellow FCF], the LD50 ([1]; Mouse, Oral) is listed as greater than 6000 mg/kg.

With COc1cccc2c1C(=O)c1c(O)c3c(c(O)c1C2=O)C[C@@](O)(C(=O)CO)C[C@@H]3O[C@H]1C[C@H](N)[C@H](O)[C@H](C)O1 [doxorubicin hydrochloride, reference compound] the “Staining of GFP-Ras^V12 positive cancerized cells versus MDCK normal cells” value ([3]; Prestwick Chemical Library compounds, 1 μM, 5 minutes, hydrochloride) was “intensely labeling MDCK normal cells compared to cancerized cell small aggregates; also recorded: GFP-Ras^V12 cells were not specifically stained, but normal cells were stained”.

With O=C([O-])c1ccccc1-c1c2cc(Br)c(=O)cc-2oc2[c]([Hg+])c([O-])c(Br)cc12.[Na+].[Na+].[OH-] [merbromin, reference compound] the “Staining of GFP-Ras^V12 positive cancerized cells versus MDCK normal cells” value [3, 4] was “intensely labeled in GFP-Ras^V12 positive cancerized cell small aggregates compared to normal cells; also recorded: GFP-Ras^V12 positive cells were preferentially stained”.

With “meclocycline sulfosalicylate [reference compound]” the “Staining of GFP-Ras^V12 positive cancerized cells versus MDCK normal cells” value [3, 4] was “intensely labeled in GFP-Ras^V12 positive cancerized cell small aggregates compared to normal cells; also recorded: GFP-Ras^V12 positive cells were preferentially stained”.
